According to ChEMBL document CHEMBL5625183, “Discovery of a novel dual-target inhibitor of CDK12 and PARP1 that induces synthetic lethality for treatment of triple-negative breast cancer” (Eur J Med Chem, 2023):
Calls of active or inactive are those of the source. No cut-off for these calls is given here.

Columns and labels:
[1] = molecular target: T1, Cyclin-dependent kinase 12 (Homo sapiens, UniProt Q9NYV4); assay: Inhibition of CDK12 (unknown origin) in presence of ATP by kinase-glo plus luminescent assay
Target sequence in this assay (Q9NYV4 whole entry): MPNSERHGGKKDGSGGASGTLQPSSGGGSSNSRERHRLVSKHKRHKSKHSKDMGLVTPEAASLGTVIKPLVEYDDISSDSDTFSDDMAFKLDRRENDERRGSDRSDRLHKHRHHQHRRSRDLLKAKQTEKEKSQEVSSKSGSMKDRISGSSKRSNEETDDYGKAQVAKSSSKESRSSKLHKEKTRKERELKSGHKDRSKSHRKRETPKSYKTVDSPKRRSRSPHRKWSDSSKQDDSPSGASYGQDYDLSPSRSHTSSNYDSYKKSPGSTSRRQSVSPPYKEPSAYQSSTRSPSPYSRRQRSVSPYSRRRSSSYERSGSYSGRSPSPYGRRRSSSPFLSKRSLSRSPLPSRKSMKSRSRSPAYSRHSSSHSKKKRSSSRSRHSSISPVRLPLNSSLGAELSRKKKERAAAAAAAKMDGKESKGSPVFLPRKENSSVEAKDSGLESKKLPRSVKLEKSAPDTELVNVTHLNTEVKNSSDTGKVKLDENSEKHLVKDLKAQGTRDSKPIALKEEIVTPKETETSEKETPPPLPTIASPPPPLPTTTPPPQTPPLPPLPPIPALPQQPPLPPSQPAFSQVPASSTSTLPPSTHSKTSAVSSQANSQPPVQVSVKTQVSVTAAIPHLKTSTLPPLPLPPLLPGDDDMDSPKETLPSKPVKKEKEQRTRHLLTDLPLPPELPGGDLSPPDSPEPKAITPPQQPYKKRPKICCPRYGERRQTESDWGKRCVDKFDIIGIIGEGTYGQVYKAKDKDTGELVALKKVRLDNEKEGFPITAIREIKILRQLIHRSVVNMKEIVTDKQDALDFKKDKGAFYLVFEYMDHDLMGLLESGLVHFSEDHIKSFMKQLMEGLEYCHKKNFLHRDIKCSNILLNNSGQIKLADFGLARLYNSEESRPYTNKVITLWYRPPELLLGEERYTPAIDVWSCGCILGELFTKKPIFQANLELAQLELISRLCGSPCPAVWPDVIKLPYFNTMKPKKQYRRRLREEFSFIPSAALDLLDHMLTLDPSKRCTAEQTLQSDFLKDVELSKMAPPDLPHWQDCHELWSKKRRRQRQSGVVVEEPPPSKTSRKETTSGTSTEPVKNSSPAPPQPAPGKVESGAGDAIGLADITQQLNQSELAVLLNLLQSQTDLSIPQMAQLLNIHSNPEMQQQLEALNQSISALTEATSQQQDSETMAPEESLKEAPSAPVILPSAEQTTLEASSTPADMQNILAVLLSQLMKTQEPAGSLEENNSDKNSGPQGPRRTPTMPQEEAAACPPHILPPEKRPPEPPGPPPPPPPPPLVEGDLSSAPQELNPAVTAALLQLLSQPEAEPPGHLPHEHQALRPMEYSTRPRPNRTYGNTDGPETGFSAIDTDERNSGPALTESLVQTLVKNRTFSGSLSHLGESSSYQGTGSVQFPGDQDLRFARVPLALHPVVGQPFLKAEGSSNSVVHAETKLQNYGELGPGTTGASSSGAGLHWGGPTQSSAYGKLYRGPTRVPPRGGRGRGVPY

[2] = test system: MDA-MB-231; assay: Inhibition of cell migration in human MDA-MB-231 cells at 10 uM incubated for 24 hrs by transwell assay; assay type: functional, cell-based
[3] = AUC (0 to infinity) in Sprague-Dawley rat at 10 mg/kg, po measured upto 24 hrs by LC-MS/MS analysis; assay type: ADME, organism-based; details: in vivo
[4] = test system: MDA-MB-436; assay: Antiproliferative activity against human MDA-MB-436 cells transfected with wild type PARP1 and CDK12 M816A mutant incubated for 24 hrs by MTT assay; assay type: functional, cell-based
[5] = test system: MDA-MB-231; assay: Inhibition of cell migration in human MDA-MB-231 cells assessed as downregulation of MMP-2 level by measuring fluorescence intensity at 10 uM incubated for 24 hrs by confocal microscopic analysis; assay type: functional, cell-based
[6] = test system: MDA-MB-436; assay: Downregulation of Pol II CTD at ser2 residue expression in human MDA-MB-436 cells incubated for 24 hrs; assay type: functional, cell-based; details: dose 5-20 µM
[7] = molecular target: T1, Cyclin-dependent kinase 12; assay: Inhibition of CDK12 (unknown origin) at 20 uM in presence of ATP by kinase-glo plus luminescent assay relative to control
Target sequence in this assay (Q9NYV4 whole entry, looked up): as the sequence (Q9NYV4 whole entry) above

[8] = test system: MDA-MB-231; assay: Induction of cell cycle arrest in human MDA-MB-231 cells assessed as accumulation of cells at G2 phase at 20 uM measured after 24 hrs by PI staining based cytometry analysis (reference value: 8.44 %); assay type: functional
[9] = test system: MDA-MB-231; assay: Antitumor activity against human MDA-MB-231 cells xenografted in BALB/c mouse assessed as reduction in Ki67 expression at 20 to 80 mg/kg, ip administered once daily for 16 days by meyers hematoxylin staining based IHC analysis; assay type: functional, organism-based; details: dose 20-80 mg/kg, time 16.0 day
[10] = molecular target: Cyclin-dependent kinase 2 (Homo sapiens, UniProt P24941); assay: Inhibition of CDK2 (unknown origin)
[11] = Metabolic stability in BALB/c mouse liver microsome assessed as half life in presence of NADPH incubated upto 60 mins by LC-MS/MS analysis; assay type: ADME; details: liver microsomes
[12] = Toxicity in BALB/c mouse xenografted with human MDA-MB-231 cells assessed as morphological changes in kidney at 20 to 80 mg/kg, ip administered once daily for 16 days by H and E staining based analysis; assay type: organism-based; details: in vivo, 384 h, dose 20-80 mg/kg, time 16 day
[13] = test system: MDA-MB-468; assay: Induction of apoptosis in human MDA-MB-468 cells assessed as upregulation of Bax expression incubated for 24 hrs; assay type: functional, cell-based; details: dose 5-20 µM
[14] = Toxicity in BALB/c mouse xenografted with human MDA-MB-231 cells assessed as morphological changes in spleen at 20 to 80 mg/kg, ip administered once daily for 16 days by H and E staining based analysis; assay type: organism-based; details: in vivo, 384 h, dose 20-80 mg/kg, time 16 day
[15] = molecular target: T1, Cyclin-dependent kinase 12; assay: Inhibition of CDK12 in human MDA-MB-231 cells assessed as effect on Pol II CTD at ser5 residue phosphorylation incubated for 24 hrs; assay type: cell-based; details: dose 5-20 µM
Target sequence in this assay (Q9NYV4 whole entry, looked up): as the sequence (Q9NYV4 whole entry) above

NC(=O)c1cccc2[nH]c(NC(=O)c3cccc(C(=O)N4CCC(Nc5ncc(I)cn5)CC4)c3)nc12
IC50 [1]: 285 nM
inhibition [2]: Active
AUC(0-inf) [3]: 71.2 ng·h/mL
Activity [4]: Active
inhibition [5]: Active
Activity [6]: Dose-Dependent Effect
inhibition [7]: Active
Activity [8]: 23.42%
Activity [9]: Active
IC50 [10]: 689 nM
half-life [11]: 1.88 h
Activity [12]: Non-Toxic
Activity [13]: Dose-Dependent Effect
Activity [14]: Non-Toxic
inhibition [15]: Dose-Dependent Effect
